# Test results taken from patent publication US20090318424A1, “NOVEL COMPOUNDS” (priority 2006, published 2009).
row,SMILES,melting point
1,"Cc1ccc(C(=O)NCc2ccccc2)cc1-c1nc(NC2CCN(C)CC2)nc2c1CNC(=O)N2c1c(F)cccc1F [Example 22, 3-{8-(2,6-Difluorophenyl)-2-[(1-methyl-4-piperidinyl)amino]-7-oxo-5,6,7,8-tetrahydropyrimido[4,5-d]pyrimidin-4-yl}-4-methyl-N-(phenylmethyl)benzamide]",152 to 154 °C (dec.)
2,"COc1nc(-c2cc(NC(=O)c3ccsc3)ccc2C)c2c(n1)N(c1c(F)cccc1F)C(=O)NC2 [10(e), N-{3-[8-(2,6-difluorophenyl)-2-(methyloxy)-7-oxo-5,6,7,8-tetrahydropyrimido-[4,5-d]pyrimidin-4-yl]-4-methylphenyl}-3-thiophenecarboxamide]",225 to 228 °C (dec.)
3,"CNc1nc(-c2cc(NC(=O)c3ccsc3)ccc2C)c2c(n1)N(c1c(F)cccc1F)C(=O)NC2 [Example 14, N-{3-[8-(2,6-difluorophenyl)-2-(methylamino)-7-oxo-5,6,7,8-tetrahydropyrimido[4,5-d]pyrimidin-4-yl]-4-methylphenyl}-3-thiophenecarboxamide]",203 to 207 °C (dec.)
4,"Cc1ccc(C(=O)Nc2ccc(C)c(-c3nc(NC4CCNCC4)nc4c3CNC(=O)N4c3c(F)cccc3F)c2)cc1F [Example 27(b), N-{3-[8-(2,6-difluorophenyl)-7-oxo-2-(4-piperidinylamino)-5,6,7,8-tetrahydropyrimido[4,5-d]pyrimidin-4-yl]-4-methylphenyl}-3-fluoro-4-methylbenzamide]",218 to 223.5 °C
5,"Cc1ccc(NC(=O)c2ccsc2)cc1-c1nc(N(C)C)nc2c1CNC(=O)N2c1c(F)cccc1F [Example 12, N-{3-[8-(2,6-difluorophenyl)-2-(dimethylamino)-7-oxo-5,6,7,8-tetrahydropyrimido[4,5-d]pyrimidin-4-yl]-4-methylphenyl}-3-thiophenecarboxamide]",214 to 215 °C
6,"Cc1ccc(C(=O)NCc2ccccc2)cc1-c1nc(NCCNC(C)C)nc2c1CNC(=O)N2c1c(F)cccc1F [Example 20, 3-[8-(2,6-Difluorophenyl)-2-({2-[(1-methylethyl)amino]ethyl}amino)-7-oxo-5,6,7,8-tetrahydropyrimido[4,5-d]pyrimidin-4-yl]-4-methyl-N-(phenylmethyl)benzamide]",133 to 137 °C

# Now from value to molecule:
row,melting point,SMILES
1,153 to 157 °C (dec.),"CNC(=O)c1ccc(C)c(-c2nc(NCCCNC(C)C)nc3c2CNC(=O)N3c2c(F)cccc2F)c1 [Example 168, 3-[8-(2,6-difluorophenyl)-2-({3-[(1-methylethyl)amino]propyl}amino)-7-oxo-5,6,7,8-tetrahydropyrimido[4,5-d]pyrimidin-4-yl]-N,4-dimethylbenzamide]"
2,89 to 91 °C,"CCN(CC)C(=O)c1ccc(C)c(-c2nc(NCCNC(C)C)nc3c2CNC(=O)N3c2c(F)cccc2F)c1 [Example 160, 3-[8-(2,6-difluorophenyl)-2-({2-[(1-methylethyl)amino]ethyl}amino)-7-oxo-5,6,7,8-tetrahydropyrimido[4,5-d]pyrimidin-4-yl]-N,N-diethyl-4-methylbenzamide]"
3,165 to 169 °C,"CCN(CC)C(=O)c1ccc(C)c(-c2nc(NC3CCN(C)CC3)nc3c2CNC(=O)N3c2c(F)cccc2F)c1 [Example 159, 3-{8-(2,6-difluorophenyl)-2-[(1-methyl-4-piperidinyl)amino]-7-oxo-5,6,7,8-tetrahydropyrimido[4,5-d]pyrimidin-4-yl}-N,N-diethyl-4-methylbenzamide]"
4,114 to 118 °C,"Cc1ccc(C(=O)N(C)C)cc1-c1nc(N(C)CCCN(C)C)nc2c1CNC(=O)N2c1c(F)cccc1F [Example 154, 3-{8-(2,6-difluorophenyl)-2-[[3-(dimethylamino)propyl](methyl)amino]-7-oxo-5,6,7,8-tetrahydropyrimido[4,5-d]pyrimidin-4-yl}-N,N,4-trimethylbenzamide]"
